Results: patent publication US20090030024A1, “THIAZOLES AS FUNGICIDES” (priority 2005, published 2009)

assay: logP determination by retention times (calibration with alkan-2-ones); details: not given

Row | Compound | chromatographic logP
1 | COc1cccc(Nc2nccc(-c3sc(C(C)C)nc3C)n2)c1 [Example 245, 4-(2-isopropyl-4-methyl-1,3-thiazol-5-yl)-N-(3-methoxyphenyl)pyrimidine-2-amine] | 3.5
2 | Cc1nc(C(C)C)sc1-c1ccnc(Nc2ccc(N(C)C)c(Cl)c2)n1 [Example 64, 2-chloro-N4-[4-(2-isopropyl-4-methyl-1,3-thiazol-5-yl)pyrimidin-2-yl]-N1,N1-dimethylbenzene-1,4-diamine] | 2.72
3 | Cc1nc(NCC2CCCO2)sc1-c1ccnc(Nc2ccccc2)n1 (centres unmarked) [Example 356, 4-{4-methyl-2-[(tetrahydrofuran-2-ylmethyl)amino]-1,3-thiazol-5-yl}-N-phenylpyrimidine-2-amine] | 1.87
4 | COc1cc(Nc2nccc(-c3sc(C)nc3C(F)(F)F)n2)cc(OC)c1OC [Example 310, 4-[2-methyl-4-(trifluoromethyl)-1,3-thiazol-5-yl]-N-(3,4,5-trimethoxyphenyl)pyrimidine-2-amine] | 3.02
5 | COc1ccc(Nc2nccc(-c3sc(C4CCCCC4)nc3C)n2)cn1 [Example 217, 4-(2-cyclohexyl-4-methyl-1,3-thiazol-5-yl)-N-(6-methoxypyridin-3-yl)pyrimidine-2-amine] | 3.86

same assay, conditions: * HPLC reversed-phase C18, 40° C., mobile phase 0.1% aqueous formic acid and acetonitrile, linear gradient 10% to 95% acetonitrile

Row | Compound | logP
6 | COC(=O)Nc1ccc(Nc2nccc(-c3sc(N(C)C)nc3C(F)(F)F)n2)cc1 [Example 694, methyl-[4-({4-[2-(dimethylamine)-4-(trifluoromethyl)-1,3-thiazol-5-yl]pyrimidin-2-yl}amino)phenyl]carbamate] | 3.04*
7 | CC(=O)c1ccc(Nc2nccc(-c3sc(N(C)C)nc3C(F)(F)F)n2)cc1 [Example 769, 1-[4-({4-[2-(dimethylamine)-4-(trifluoromethyl)-1,3-thiazol-5-yl]pyrimidin-2-yl}amino)phenyl]ethanone] | 3.44*
8 | COc1ccc(Nc2nccc(-c3sc(N(C)C)nc3C(F)(F)F)n2)cn1 [Example 783, 4-[2-(dimethylamine)-4-(trifluoromethyl)-1,3-thiazol-5-yl]-N-(6-methoxypyridin-3-yl)pyrimidine-2-amine] | 3.17*
9 | CN(C)c1nc(C(F)(F)F)c(-c2ccnc(Nc3ccc(O)cc3)n2)s1 [Example 697, 4-({4-[2-(dimethylamine)-4-(trifluoromethyl)-1,3-thiazol-5-yl]pyrimidin-2-yl}amino)phenol] | 2.64*

same assay, conditions: logP(HCOOH), HCOOH

Row | Compound | chromatographic logP
10 | COc1cc(Nc2ncc(Cl)c(-c3sc(C)nc3C)n2)cc(OC)c1OC [Example 874, 5-Chloro-4-(2,4-dimethyl-1,3-thiazol-5-yl)-N-(3,4,5-trimethoxyphenyl)-pyrimidine-2-amine] | 2.82

same assay, conditions: logP, * HPLC reversed-phase C18, 40° C., mobile phase 0.1% aqueous formic acid and acetonitrile, linear gradient 10% to 95% acetonitrile

Row | Compound | chromatographic logP
11 | COCCNc1nc(C)c(-c2ccnc(Nc3ccc(C(C)=O)cc3)n2)s1 [Example 751, 1-{4-[(4-{2-[(2-methoxyethyl)amino]-4-methyl-1,3-thiazol-5-yl}pyrimidin-2-yl)amino]phenyl}ethanone] | 1.72
12 | CC(=O)N(Cc1cccc(N(C(C)=O)c2nccc(-c3sc(C4CC4)nc3C)n2)c1)C(C)=O [Example 622, N-acetyl-N-(3-{acetyl[4-(2-cyclopropyl-4-methyl-1,3-thiazol-5-yl)pyrimidin-2-yl]amino}benzyl)acetamide] | 2.39
13 | CCc1nc(C)c(-c2ccnc(Nc3ccc(C(=O)NCCOC)cc3)n2)s1 [Example 711, 4-{[4-(2-ethyl-4-methyl-1,3-thiazol-5-yl)pyrimidin-2-yl]amino}-N-(2-methoxyethyl)benzamide] | 2.09
14 | COC(=O)NCc1cccc(Nc2nccc(-c3sc(SC)nc3C)n2)c1 [Example 712, methyl-[3-({4-[4-methyl-2-(methylthio)-1,3-thiazol-5-yl]pyrimidin-2-yl}amino)benzyl]carbamate] | 2.16
15 | CCc1nc(C)c(-c2ccnc(Nc3ccc(OC)cc3)n2)s1 [Example 789, 4-(2-ethyl-4-methyl-1,3-thiazol-5-yl)-N-(4-methoxyphenyl)pyrimidine-2-amine] | 2.78
16 | COCCNc1nc(C)c(-c2ccnc(Nc3ccc4c(c3)OCO4)n2)s1 [Example 802, N-1,3-benzodioxol-5-yl-4-{2-[(2-methoxyethyl)amino]-4-methyl-1,3-thiazol-5-yl}pyrimidine-2-amine] | 1.65
17 | COC(=O)Nc1ccc(Nc2nccc(-c3sc(C)nc3C(F)(F)F)n2)cc1 [Example 693, methyl-[4-({4-[2-methyl-4-(trifluoromethyl)-1,3-thiazol-5-yl]pyrimidin-2-yl}amino)phenyl]carbamate] | 2.7
18 | COCC(C)Nc1nc(C)c(-c2ccnc(Nc3ccc(F)c(C)c3)n2)s1 (centres unmarked) [Example 482, N-(4-fluoro-3-methylphenyl)-4-{2-[(2-methoxy-1-methylethyl)amino]-4-methyl-1,3-thiazol-5-yl}pyrimidine-2-amine] | 2.19
19 | COc1ccc(Nc2nccc(-c3sc(C)nc3C)n2)cc1Cl [Example 416, N-(3-chloro-4-methoxyphenyl)-4-(2,4-dimethyl-1,3-thiazol-5-yl)pyrimidine-2-amine] | 2.88
20 | CCCc1nc(C)c(-c2ccnc(Nc3ccccc3)n2)s1 [Example 766, 4-(4-methyl-2-propyl-1,3-thiazol-5-yl)-N-phenylpyrimidine-2-amine] | 3.49
21 | Clc1ccc(-c2ncc(-c3ccnc(Nc4cccc(Cl)c4)n3)s2)cc1 [Example 795, N-(3-chlorophenyl)-4-[2-(4-chlorophenyl)-1,3-thiazol-5-yl]pyrimidine-2-amine] | 5.57

same assay, conditions: logP, values marked *: HPLC on reversed-phase C 18, 40° C., mobile phase 0.1% aqueous formic acid and acetonitrile, linear gradient 10% to 95% acetonitrile

Row | Compound | chromatographic logP
22 | CCc1nc(C)c(-c2ccnc(Nc3ccc(F)c(N4CCN(C(C)=O)CC4)c3)n2)s1 [Example 848, N-[3-(4-acetylpiperazin-1-yl)-4-fluorophenyl]-4-(2-ethyl-4-methyl-1,3-thiazol-5-yl)pyrimidine-2-amine] | 2.42
23 | COc1cc(Nc2ncc(Cl)c(-c3sc(C)nc3C)n2)cc(OC)c1OC [Example 874, 5-Chloro-4-(2,4-dimethyl-1,3-thiazol-5-yl)-N-(3,4,5-trimethoxyphenyl)-pyrimidine-2-amine] | 2.82
24 | COCCOc1nc(C)c(-c2ccnc(Nc3ccc(F)cc3)n2)s1 [Example 899, N-(4-fluorophenyl)-4-[2-(2-methoxyethoxy)-4-methyl-1,3-thiazol-5-yl]pyrimidine-2-amine] | 3.12
25 | CCc1nc(C)c(-c2ccnc(Nc3ccc(N(C)C)cc3)n2)s1 [Example 879, N′-[4-(2-ethyl-4-methyl-1,3-thiazol-5-yl)pyrimidin-2-yl]-N,N-dimethylbenzene-1,4-diamine] | 1.56
26 | COCCOc1nc(C)c(-c2ccnc(Nc3ccccc3)n2)s1 [Example 901, 4-[2-(2-methoxyethoxy)-4-methyl-1,3-thiazol-5-yl]-N-phenylpyrimidine-2-amine] | 3.01
27 | COCCCNc1nc(C)c(-c2ccnc(Nc3ccc(C(C)=O)cc3)n2)s1 [Example 855, 1-{4-[(4-{2-[(3-methoxypropyl)amino]-4-methyl-1,3-thiazol-5-yl}pyrimidin-2-yl)amino]phenyl}ethanone] | 1.81
28 | COCCNc1nc(C)c(-c2ccnc(Nc3ccc(F)c(F)c3)n2)s1 [Example 897, N-(3,4-difluorophenyl)-4-{2-[(2-methoxyethyl)amino]-4-methyl-1,3-thiazol-5-yl}pyrimidine-2-amine] | 2.15
29 | COCCNc1nc(C)c(-c2ccnc(Nc3ccc(Cl)nc3)n2)s1 [Example 872, N-(6-chloropyridin-3-yl)-4-{2-[(2-methoxyethyl)amino]-4-methyl-1,3-thiazol-5-yl}pyrimidine-2-amine] | 1.71
